From patent US12042501B2, “Metal protoporphyrin for treatment of BK virus” (Renibus Therapeutics, Inc., priority 2021, dated 2024)
pEC50: −log10 of the molar value. “Also recorded” adds a separate entry of the source. Where two headings read alike, the source gives them in different places.

How the values were obtained:
BK Virus [1] = experiment: BK virus viral neutralization assay (pre-incubation of SnPP with BK virus for 1 hour prior to infection), qPCR; assay type: cell-based, strain Gardner; details: for pEC50 / EC90 / SI50 / SI90: experiment 21-bk2-004; for pEC50 / EC90: Secondary (Neutralization, pre-incubation of virus), BK Virus Gardner in HFF, qPCR (DNA); for SI50 / SI90: Secondary (Neutralization); for SI50: CC50/EC50; for SI90: CC50/EC90
BK Virus [2] = experiment: BK virus standard qPCR-based antiviral assay (treatment with SnPP at the time of infection; primary and secondary); assay type: cell-based, strain Gardner; details: for SI50: CC50/EC50; for SI90: CC50/EC90; for Activity: BK
HFF cells = experiment: Cellular viability by CellTiter-Glo in the BK virus assays
[3] = as above; details: human
enveloped viruses = details: in vitro; Neris et al. 2018; cited from earlier work
[4] = test system: non-enveloped polio virus; details: in vitro; Neris et al. 2018; cited from earlier work
CMV = CMV primary antiviral assay; assay type: cell-based
HPV (HPV11) = experiment: HPV primary antiviral assay; assay type: cell-based, Human Papilloma Virus
[5] = in vivo
Adenovirus (Adv) = experiment: AdV primary antiviral assay; assay type: cell-based
JC virus [6] = experiment: JC virus neutralization assay (pre-incubation of virus with RBT-9) in COS7 cells; assay type: cell-based, 1-4 strain
Procedure: The present inventors used assays to determine the antiviral activity against various pathogens, including particularly the BK virus. Two conditions were investigated: 1) standard qPCR-based antiviral assay—treatment with SnPP at the time of infection and 2) viral neutralization—pre-incubation of SnPP with BK virus for 1 hour prior to infection. SnPP was tested at concentrations up to 100 μM. Human foreskin fibroblast (HFF) cells were used as the host cell. Viral activity was assessed by real time qPCR and cellular viability was determined by CellTiter-Glo.
(§1) Primary evaluation of compounds against JC virus were also performed by methods similar to those for BK virus primary assays but were done in COS7 cells and utilized the 1-4 strain of JCV in COS7 cells. Viral DNA was quantified using primers 5′-[…]-3′ and 5′-[…]-3′ and probe 5′-6-FAM-[…]-TAMRA-3 together with the plasmid pMP508 to provide a standard curve for absolute quantification. Secondary assays against JCV were also performed in COS7 cells by methods similar to those for BK virus to identify compounds that inhibited adsorption or penetration of the virus. • EC50—compound concentration that reduces viral replication by 50% • EC90—compound concentration that reduces viral replication by 90% • CC50—compound concentration that reduces cell viability by 50% • SI50—CC50/EC50 • SI90—CC50/EC90

JC virus [7] = experiment: JC virus qPCR antiviral assay in COS7 cells (primary/standard); assay type: cell-based, 1-4 strain; details: for Activity / pEC50 / EC90 / SI50: JC; for Activity: Non-enveloped; for SI50: CC50/EC50
Procedure: as §1

[8] = test system: acute kidney injury (AKI); details: animals; given prior to insult; cited from earlier work
[9] = experiment 21-bk2-001, Secondary
[10] = experiment 21-bk2-003, Primary (Standard)
[11] = experiment 21-bk2-003, Primary (Standard), HFF, CellTiter-Glo
[12] = experiment 21-bk2-004, Secondary (Neutralization), HFF, CellTiter-Glo

Nc1ccn(C[C@@H](CO)OCP(=O)(O)O)c(=O)n1 [Cidofovir, reference compound]
pEC50 (BK Virus [1]; Betapolyomavirus hominis): < 4.00 | EC90 (BK Virus [1]; Betapolyomavirus hominis): > 100 µM | SI50 (BK Virus [1]): 1 | SI90 (BK Virus [1]): 1 | EC90 (BK Virus [2]; Betapolyomavirus hominis, experiment 20-bk-007, Primary, BK Virus Gardner in HFF, qPCR (DNA)): 117 µM | pEC50 (BK Virus [2]; Betapolyomavirus hominis, experiment 20-bk-007, Primary, BK Virus Gardner in HFF, qPCR (DNA), read-out: EC50): 5.20 | EC90 (BK Virus [2]; Betapolyomavirus hominis, experiment 21-bk2-001, Secondary, BK Virus Gardner in HFF, qPCR (DNA)): 10.7 µM | pEC50 (BK Virus [2]; Betapolyomavirus hominis, experiment 21-bk2-001, Secondary, BK Virus Gardner in HFF, qPCR (DNA), read-out: EC50): 6.14 | EC90 (BK Virus [2]; Betapolyomavirus hominis, experiment 21-bk2-003, Primary (Standard), BK Virus Gardner in HFF, qPCR (DNA)): 17.9 µM | pEC50 (BK Virus [2]; Betapolyomavirus hominis, experiment 21-bk2-003, Primary (Standard), BK Virus Gardner in HFF, qPCR (DNA), read-out: EC50): 6.89 | SI50 (BK Virus [2]; experiment 20-bk-007, Primary): >24 | SI90 (BK Virus [2]; experiment 20-bk-007, Primary): >1 | SI50 (BK Virus [2]; [9]): >139 | SI90 (BK Virus [2]; [9]): >9 | SI50 (BK Virus [2]; [10]): >769 | SI90 (BK Virus [2]; [10]): >6 | CC50 (HFF cells; [11]): > 100 µM | CC50 (HFF cells; [12]): > 100 µM | CC50 [3]: > 100 µM | CC50 ([3]; CC50, experiment 20-bk-007, Primary, HFF, CellTiter-Glo): > 150 µM

C=Cc1c(C)c2cc3[nH]c(cc4nc(cc5nc(cc1[nH]2)C(C)=C5CCC(=O)[O-])C(CCC(=O)[O-])=C4C)c(C)c3C=C.[Co+2] [Cobalt protoporphyrin, Co-protoporphyrin IX, reference compound]
antiviral activity against enveloped viruses (enveloped viruses): broad antiviral activity | activity against polio virus [4]: no activity

C=CC1=C(C)c2cc3[n-]c(cc4[n-]c(cc5nc(cc1n2)C(C)=C5C=C)c(C)c4CCC(=O)O)c(CCC(=O)O)c3C.[Sn+2] [SnPP, Stannous protoporphyrin]
Activity (BK Virus [1]; BK, Secondary (Neutralization) (21-bk2-004)): MODERATE | SI50 (BK Virus [1]): 15 | SI90 (BK Virus [1]): 3 | pEC50 (BK Virus [1]): 5.27 | EC90 (BK Virus [1]): 32.9 µM | pEC50 (CMV): < 5.22 | EC90 (CMV): > 6 µM | SI50 (CMV; CC50/EC50): <3 | Activity (CMV; Enveloped): NONE | Activity (BK Virus [2]; Primary (20-bk-007)): MODERATE | Activity (BK Virus [2]; Primary (Standard) (21-bk2-003)): MODERATE | Activity (BK Virus [2]; Secondary (21-bk2-001)): HIGH | pEC50 (BK Virus [2]; averaged in 2 independently run standard qPCR assays, BK virus, read-out: 50% effective concentration (EC50), average): 5.26 | antiviral / inactivating activity against BK virus (in words) (BK Virus [2]; both treatment conditions): broad inactivating activity; also recorded: moderate antiviral activity; also recorded: most significant activity | EC90 (BK Virus [2]; experiment 20-bk-007, Primary, BK Virus Gardner in HFF, qPCR (DNA)): 26.6 µM | pEC50 (BK Virus [2]; experiment 20-bk-007, Primary, BK Virus Gardner in HFF, qPCR (DNA), read-out: EC50): 5.09 | SI50 (BK Virus [2]; experiment 20-bk-007, Primary): 8 | SI90 (BK Virus [2]; experiment 20-bk-007, Primary): 2 | EC90 (BK Virus [2]; experiment 21-bk2-001, Secondary, BK Virus Gardner in HFF, qPCR (DNA)): 30.1 µM | pEC50 (BK Virus [2]; experiment 21-bk2-001, Secondary, BK Virus Gardner in HFF, qPCR (DNA), read-out: EC50): 5.62 | SI50 (BK Virus [2]; [9]): 40 | SI90 (BK Virus [2]; [9]): 3 | EC90 (BK Virus [2]; experiment 21-bk2-003, Primary (Standard), BK Virus Gardner in HFF, qPCR (DNA)): 81.8 µM | pEC50 (BK Virus [2]; experiment 21-bk2-003, Primary (Standard), BK Virus Gardner in HFF, qPCR (DNA), read-out: EC50): 5.07 | SI50 (BK Virus [2]; [10]): 10 | SI90 (BK Virus [2]; [10]): 1 | inactivating activity against HPV (in words) (HPV (HPV11)): not found; also recorded: Minimal to no activity | Activity (HPV (HPV11); HPV (HPV11), Non-enveloped, Primary): MINIMAL | pEC50 (HPV (HPV11); HPV (HPV11), Primary): 4.63 | EC90 (HPV (HPV11); HPV (HPV11), Primary): > 30 µM | SI50 (HPV (HPV11); HPV (HPV11), Primary, CC50/EC50): 5 | concentration not adversely affecting host cell viability, times higher than effective concentration (HFF cells; CC50 average versus effective concentration, BK virus assays): 16.5 times | CC50 (HFF cells; experiment 20-bk-007, Primary, HFF, CellTiter-Glo): 62.3 µM | CC50 (HFF cells; experiment 21-bk2-001, Secondary, HFF, CellTiter-Glo): 95.8 µM | CC50 (HFF cells; [11]): 82.7 µM | CC50 (HFF cells; [12]): 82.7 µM | CC50 (HFF cells; read-out: 50% cytotoxic concentration (CC50), average, averaged in the in vitro studies, host cell viability): 89.2 µM | tolerability [5]: well tolerated | inactivating activity against Adenovirus (in words) (Adenovirus (Adv)): not found; also recorded: Minimal to no activity | Activity (Adenovirus (Adv); AdV, Non-enveloped, Primary): NONE | pEC50 (Adenovirus (Adv); AdV, Primary): < 4.52 | EC90 (Adenovirus (Adv); AdV, Primary): > 30 µM | SI50 (Adenovirus (Adv); AdV, Primary, CC50/EC50): <1 | antiviral activity against enveloped viruses (enveloped viruses): broad antiviral activity | Activity (JC virus [6]; Non-enveloped, Secondary (Neutralization, pre-incubation of virus with RBT-9)): MINIMAL | pEC50 (JC virus [6]; Secondary (Neutralization)): 4.72 | EC90 (JC virus [6]; Secondary (Neutralization)): > 20 µM | SI50 (JC virus [6]; Secondary (Neutralization), CC50/EC50): 4 | inactivating activity against JC virus (in words) (JC virus [7]): moderate inactivating activity | Activity (JC virus [7]; Primary): MODERATE | Activity (JC virus [7]; Primary (Standard)): MODERATE | pEC50 (JC virus [7]; Primary): 5.27 | EC90 (JC virus [7]; Primary): > 30 µM | pEC50 (JC virus [7]; Primary (Standard)): 5.00 | EC90 (JC virus [7]; Primary (Standard)): 63.1 µM | SI50 (JC virus [7]; Primary (Standard)): 7 | SI50 (JC virus [7]; Primary): 19 | protection against acute kidney injury (AKI) [8]: protective | activity against polio virus [4]: no activity
